Two compounds from patent publication US20240285705A1, “AQUEOUS EXTRACTION OF CANNABINOIDS” (Curaleaf, Inc., priority 2023, published 2024) can be followed below.

This data set is described as follows: Solubilization of cannabinoids in NaOH and KOH solutions. The data set is classed as physicochemical. The procedure:
Concentration Selection: NaOH and KOH solutions having concentrations ranging from 0M to 2M were prepared and tested for their ability to solubilize D9THCA and CBDA. […] All forms of cannabinoids were extracted using NaOH and KOH. It was also determined that neutral cannabinoids were removed from the plant to a much less extent during base extraction.

`C=C(C)[C@@H]1CCC(C)=C[C@H]1c1c(O)cc(CCCCC)c(C(=O)O)c1O` [CBDA, cannabidolic acid]: the Solubility entry (NaOH and KOH solutions, concentrations ranging from 0M to 2M) is reported as “higher than D9THC”. With `CCCCCc1cc2c(c(O)c1C(=O)O)[C@@H]1C=C(C)CC[C@H]1C(C)(C)O2` [D9THCA, tetrahydrocannabinolic acid], under “NaOH/KOH solution above 0.3M”, the “Degradation by strong base” value is “begins to noticeable degrade”.
